Experimental data as given in patent US7759087B1, “Method of indefinite culture of hepatitis C virus” (priority 2005, dated 2010).

What was measured:
[1] = test system: HCV replicon (NS5A-GFP) in GS4 cells; test: GFP-based flow cytometry assay for HCV replication (NS5A-GFP expression in GS4 replicon cells); format: cell-based, hepatitis C virus; conditions: for mean intensity of the GFP and percentage of GFP-positive cells: 100 units/ml IFN, 1 μM 2CMA, 2 μg/ml Cs A
Description: (§1) Flow cytometry and cell cycle analysis. Cells were routinely fixed in 2% paraformaldehyde before flow cytometry analysis, which was performed with a FACSCanto flow cytometer (BD Biosciences). Live cell sorting was performed under sterile conditions with a FACSAria flow cytometer (BD Biosciences). The approximately 5% of cells (2×10^7 cells total) with the strongest GFP signal were sorted back for expansion at each round of live-cell sorting. For cell-cycle analysis, 1×10^6 cells were stained with 50 μg/ml propidium iodide in the presence of 200 μg/ml RNase A and 0.1% Triton X-100 for 30 minutes before being subjected to FACS analysis.
A novel GFP-based flow cytometry assay for HCV replication. Recently, a modified HCV replicon with the eGFP gene inserted into the coding region of NS5A has been generated for study of the subcellular localization of the HCV replication complex (16). […] When we subjected I/5A-GFP cells to flow-cytometry analysis, we found the GFP signal of the majority (˜70%) of the cells to be indistinguishable from that of Clone B, a replicon cell line without GFP but containing the same S2204I mutation in the NS5A gene (1) (FIG. 1). To obtain a cell line with minimal FACS-profile overlap with the GFP-negative replicon cells, we then performed consecutive rounds of cell sorting on I/5A-GFP-6 cells in which the cells with the strongest GFP were recovered. A population with no greater than 15% GFP-negative cells was obtained after four rounds of sorting and was used for the present study. We designated these cells GS4 (FIG. 1).
The GFP signal of these cells was then analyzed by flow cytometry 4 days after treatment with increasing amounts of inhibitors, including Interferon-α (IFN-α), 2′-Cmethyl-adenosine (2CMA), and Cyclosporin A (Cs A). […] The […] (0.25 μM for 2CMA, 0.5 μg/ml for CsA, and 10-25 units/ml for IFN-α) obtained with this assay closely resemble results from previous studies where HCV RNA level was measured (2, 6, 19, 26).

[2] = test system: HCV RNA in GS4 cells; test: Northern analysis of HCV RNA in GS4 cells; format: cell-based, hepatitis C virus; conditions: 3 days, 1 μM 2CMA, 10 μg/ml aphidicolin
Description: RNA extraction and northern blots. Total RNA was extracted with TRIzol reagent (Invitrogen, San Diego, Calif.). Equal amounts of RNA (10 μg per sample) were loaded onto formaldehyde-containing agarose gels for electrophoresis. The transfer of RNA onto a nitrocellulose membrane, random labeling of a radioactive probe, and hybridization were all performed according to standard molecular-biology protocols. The probe for detecting HCV RNA is a cDNA fragment that corresponds to nucleotides 8024 to 9563 of HCV 1 b. The exposure and detection of the radioactive signal was done with a Storm 860 phosphor-imaging system (Amersham/GE Healthcare).
To validate our results at the viral RNA level, we repeated the inhibition and rescue experiments and directly examined HCV RNA by northern blotting. GS4 cells were treated with various inhibitors/agents for 3 days before the total RNAs were subjected to northern analysis for HCV RNA.

[3] = test system: HCV replicon (wild-type NS5A) in Huh.8 cells; test: Western blot for NS5A expression in Huh.8 replicon cells; format: cell-based, hepatitis C virus; conditions: 4 days, 1 μM 2CMA, 10 μg/ml aphidicolin
Description: Antibodies and western blots. An anti-NS5A monoclonal antibody was purchased from Virogen (Boston, Mass.) and an anti-Ku86 monoclonal antibody from Sigma. A monoclonal antibody against GFP was obtained from Clontech/BD Biosciences. To detect membrane-associated HCV proteins, we directly lysed the replicon cells in SDS PAGE sample buffer. We used 2×10^5 cells per 160 μl of SDS PAGE sample buffer for all our western blotting experiments. Blotting and detection were all performed according to standard procedures. For detection of Ku86 signal, the membrane was first stripped of the NS5A signal by incubation in stripping buffer (100 mM 2mercaptoethanol, 2% SDS, 62.5 mM Tris-HCl, pH 6.7) for 30 minutes at 50° C.
Additional experiments with a replicon cell line containing a wild type HCV sequence. […] Huh.8 is replicon cell line that contains the wild-type sequence of NS5A (1). Huh.8 cells were cultured under various conditions for 4 days before being analyzed by western blot for NS5A expression. […] Serum starvation actually appeared to have increased NS5A expression, as it did with the GS4 cells (FIG. 8 and data not shown).

[4] = test system: HCV replicon (NS5A-GFP) in GS4 cells; test: Recovery of NS5A-GFP expression at 37° C. after 39° C. treatment of GS4 cells; format: cell-based, hepatitis C virus; conditions: 4 days recovery at 37° C.; 100 units/ml IFN-a, 10 μg/ml aphidicolin
Description: To eliminate the possibility that these growth-arrest treatments somehow stabilize the GFP and maintain it throughout the treatment, we took advantage of our finding that 39° C. treatment results in reversible inhibition of HCV replication in our assay. We first eliminated the GFP signal from GS4 cells by incubating them at 39° C. for 4 days and then transferred the cells back to 37° C. so that HCV replication could recover. […] We tested aphidicolin and serum starvation using this assay along with IFN-α.

[5] = test system: GS4 cells; test: Cell-cycle analysis by propidium iodide staining; format: cell-based; conditions: 4 days, 10 μg/ml shown
Description: as §1
Failure of growth arrest to inhibit replicon expression prompted us to examine the effect of cell-cycle perturbation on replicon expression. Propidium iodide (PI) staining of the cells permitted acquisition of dual fluorescence FACS profiles showing the cell-cycle distribution of GFP-positive and -negative cells. We found no correlation between positive GFP signal and any of the cell-cycle stages in the cycling cells (FIG. 12, no treatment). Incubation at 39° C. inhibited NS5A-GFP expression without any effect on cell-cycle profile. […] Even though confluency also affected cell cycle to a certain degree, its effect on cell-cycle progress was far less dramatic than that of aphidicolin.

[6] = test system: full-length HCV RNA based on the genotype 1b HCV-N; conditions: reference 22; cited from earlier work
[7] = test system: HCV replicon; conditions: reference 17; cited from earlier work

| Compound | mean intensity of the GFP and percentage of GFP-positive cells ([1]; GS4 cells, 4 days) | IC50 ([1]; Hepatitis C virus, 96 h, GS4 cells, 4 days treatment, flow cytometry, read-out: 1050 (NS5A-GFP expression)) | HCV RNA signal (northern blotting) [2] | NS5A expression (western blot) [3] | effect on NS5A-GFP expression ([1]; 5 to 20 μg/ml, GS4 cells, 4 days) | recovery of NS5A-GFP expression after 39° C. treatment [4] | cell-cycle arrest [5] | abundance of HCV RNA or protein [6] | effect on HCV replicon [7] | effect on HCV RNA replication or protein expression ([1]; our system, data not shown) |
| --- | --- | --- | --- | --- | --- | --- | --- | --- | --- | --- |
| C[C@@]1(O)[C@H](O)[C@@H](CO)O[C@H]1n1cnc2c(N)ncnc21 [2CMA, 2′-C-methyl-adenosine] | effectively lowered | 250 nM | effectively eliminated HCV RNA signal | effectively eliminated any NS5A expression | – | – | – | – | – | – |
| C[C@@]1(CO)[C@H](O)CC[C@@]2(C)[C@H]1CC[C@H]1C[C@@H]3C[C@@]12CC[C@]3(O)CO [aphidicolin] | – | – | only had a minimal effect | did not inhibit HCV expression | failed to affect NS5A-GFP expression significantly | did not prevent the resumption of HCV replication | effectively arrested cell cycle at the G1/S transition | had no effect | inhibitory effect | – |
| Interferon-α [IFN-α] | effectively lowered | – | – | – | – | efficiently blocked the recovery of the NS5A-GFP expression | – | – | – | – |
| TGF-β | – | – | – | – | – | – | – | – | – | only a marginal effect |
